Molecules are shown by their SMILES.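 Cells were grown in 96-well plates and exposed to each compound for 48 hours at five concentrations; endpoints were interpolated linearly between bracketing concentrations, or set to the highest concentration if not reached. Here, GI50 denotes the concentration required for 50% inhibition of growth.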 The source made the active and inactive calls. Rule as the data show it: active = GI50 up to about 1.1 µM and inactive = higher. A value given as a limit tells only on which side of the number the result lay.

Among the test systems are MDA-MB-231; Hs-578T; T47D; DU-145; LXFL 529; XF498; RXF 631; BT-549.
Holding throughout (experiment): inhibition of tumour cell growth, NCI panel, 48 h

As for `COc1nc2ccc(COc3ccc(C(=O)NC(CCC(=O)O)C(=O)O)cc3)cc2nc1OC` (configuration not stated), the GI50 in the assay with MDA-MB-231, in the assay on Hs-578T, in the assay with T47D and with DU-145 was > 10 µM (inactive) throughout.
As for `COc1ccc(C[C@H](N)C(=O)N2C[C@@H](CO)C[C@@H](n3ccc(=O)[nH]c3=O)C2)cc1`, the GI50 in the assay on LXFL 529 is > 100 µM (inactive).
With `CC(=O)OCC1=C(C(=O)O)C(c2ccc3c(c2)OCO3)c2cc3c(cc2O1)OCO3` (configuration not stated), the GI50 in the assay with XF498 and in the assay on RXF 631 was > 100 µM (inactive) each time.
Regarding `CO/C(=N\N=C(/C)C(F)(F)F)c1ccncc1`, the GI50 with MDA-MB-231, in the assay with Hs-578T, with BT-549, with T47D and with DU-145 was > 100 µM (inactive) each time.
Turning to `Cc1ccc(C2C(C(=O)C(C)(C)C)N2S(=O)(=O)c2ccc(C)cc2)cc1` (configuration not stated), the GI50 is 19.8 µM (inactive) in the assay on MDA-MB-231; 28.7 µM (inactive) with Hs-578T; 17.7 µM (inactive) in the assay with BT-549; 21 µM (inactive) with T47D; 18.7 µM (inactive) with DU-145.
With `COc1ccc(C2OC[C@H]3O[C@@H](OCc4ccccc4)[C@H](O)[C@@H](O)[C@@H]3O2)cc1` (some centres not stated), the GI50 was > 100 µM (inactive) in the assay on MDA-MB-231, 55.5 µM (inactive) in the assay with Hs-578T, > 100 µM (inactive) with BT-549 and > 100 µM (inactive) in the assay on DU-145.
For the molecule `CCCNC1=C(C)C(=O)C2=C(C1=O)[C@H](COC(N)=O)[C@]1(OC)[C@@H]3N[C@@H]3CN21`, the GI50 in the assay on XF498 is 4.78 µM (inactive).
The same measure, in the same setting: to `CCCC(O)C(NC(=O)CCl)C(=O)O` (configuration not stated) belongs > 100 µM (inactive).
`CCOP(=O)(C/C=C/Cn1ncc(=O)[nH]c1=O)OCC`: the GI50 with MDA-MB-231, in the assay on Hs-578T, in the assay with BT-549, with T47D and with DU-145 was > 100 µM (inactive) throughout.
In the case of `CN1CCOC(c2ccc(Cl)cc2)O1` (configuration not stated), the GI50 in the assay with MDA-MB-231 and in the assay with BT-549 was > 100 µM (inactive) in each case.
Consider `CC(=O)Nc1cccc(/N=N/N(C)C)c1`, for which, in the assay with XF498, the GI50 was > 100 µM (inactive).
Consider `Cc1ccc(C(C)(C)C[P+](C)(c2ccccc2)c2ccccc2)cc1`, for which the GI50 in the assay with XF498 was 2.88 µM (inactive).

The values are drawn from ChEMBL document CHEMBL1201862, “PubChem BioAssay data set” (2004).
